Measurements from patent publication US20130131057A1, “NEW BICYCLIC COMPOUNDS AS PI3-K AND MTOR INHIBITORS” (CENTRO NACIONAL DE INVESTIGACIONES ONCOLOGICAS (CNIO, priority 2010, published 2013).
Several values for one entry are separate records, joined by “and”; a condition that tells them apart may be missing. Equal values may be shown once.

molecular target: T1, PI3K (p110α/p85α) (Homo sapiens, UniProt P42336); experiment: PI3K activity assay (ADP Hunter Plus); assay type: biochemical; details: read-out: PI3Kα IC50
T1 construct: purchased Carna Biosciences 07CBS-0402A
Procedure: The kinase activity was measured by using the commercial ADP Hunter™ Plus assay available from DiscoveRx, (#33-016), which is a homogeneous assay to measure the accumulation of ADP, a universal product of kinase activity. The enzyme, PI3K (p110α/p85α, was purchased from Carna Biosciences (#07CBS-0402A). The assay was done following the manufacturer recommendations with slight modifications: Mainly the kinase buffer was replace by 50 mM HEPES, pH 7.5, 3 mM MgCl2, 100 mM NaCl, 1 mM EGTA, 0.04% CHAPS, 2 mM TCEP and 0.01 mg/ml BGG. The PI3K was assayed in a titration experiment to determine the optimal protein concentration for the inhibition assay. To calculate the IC50 of the ETP-compounds, serial 1:5 dilutions of the compounds were added to the enzyme at a fixed concentration (2.5 μg/ml. The enzyme was preincubated with the inhibitor and 30 μM PIP2 substrate (P9763, Sigma) for 5 min and then ATP was added to a final 50 μM concentration. Reaction was carried out for 1 hour at 25° C. Reagent A and B were sequentially added to the wells and plates were incubated for 30 min at 37° C. Fluorescence counts were read in a Victor instrument (Perkin Elmer) with the recommended settings (544 and 580 nm as excitation and emission wavelengths, respectively). Values were normalized against the control activity included for each enzyme (i.e., 100% PI3 kinase activity, without compound). These values were plot against the inhibitor concentration and were fit to a sigmoid dose-response curve by using the Graphad software.

T1 sequence (P42336 whole entry): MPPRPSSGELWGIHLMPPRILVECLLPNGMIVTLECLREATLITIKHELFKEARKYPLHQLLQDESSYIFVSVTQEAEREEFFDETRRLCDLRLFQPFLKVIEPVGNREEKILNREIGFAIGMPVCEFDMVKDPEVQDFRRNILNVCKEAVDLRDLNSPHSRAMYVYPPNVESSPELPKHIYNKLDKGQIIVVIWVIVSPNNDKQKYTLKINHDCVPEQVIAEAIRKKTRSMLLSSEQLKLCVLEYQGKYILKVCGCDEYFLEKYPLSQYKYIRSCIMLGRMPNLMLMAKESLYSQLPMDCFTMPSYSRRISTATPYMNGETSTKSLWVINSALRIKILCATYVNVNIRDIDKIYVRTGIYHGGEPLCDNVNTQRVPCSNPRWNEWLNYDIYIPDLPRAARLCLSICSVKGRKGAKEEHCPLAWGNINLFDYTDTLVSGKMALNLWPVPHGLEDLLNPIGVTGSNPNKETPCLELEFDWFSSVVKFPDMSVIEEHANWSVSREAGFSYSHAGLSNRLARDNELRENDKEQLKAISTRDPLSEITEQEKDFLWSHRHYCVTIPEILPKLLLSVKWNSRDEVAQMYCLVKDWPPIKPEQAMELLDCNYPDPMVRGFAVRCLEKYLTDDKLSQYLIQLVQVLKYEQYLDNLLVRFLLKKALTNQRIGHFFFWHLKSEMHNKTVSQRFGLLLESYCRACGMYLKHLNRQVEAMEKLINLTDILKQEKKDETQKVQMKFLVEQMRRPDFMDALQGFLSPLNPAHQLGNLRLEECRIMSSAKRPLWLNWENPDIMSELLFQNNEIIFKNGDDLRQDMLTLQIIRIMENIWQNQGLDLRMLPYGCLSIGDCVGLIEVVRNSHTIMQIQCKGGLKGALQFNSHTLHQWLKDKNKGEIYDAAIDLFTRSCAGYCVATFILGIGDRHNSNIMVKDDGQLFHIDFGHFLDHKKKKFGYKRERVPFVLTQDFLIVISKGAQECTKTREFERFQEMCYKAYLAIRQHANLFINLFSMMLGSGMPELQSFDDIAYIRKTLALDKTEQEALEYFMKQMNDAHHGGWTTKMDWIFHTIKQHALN
T1 sequence (P27986 whole entry partner): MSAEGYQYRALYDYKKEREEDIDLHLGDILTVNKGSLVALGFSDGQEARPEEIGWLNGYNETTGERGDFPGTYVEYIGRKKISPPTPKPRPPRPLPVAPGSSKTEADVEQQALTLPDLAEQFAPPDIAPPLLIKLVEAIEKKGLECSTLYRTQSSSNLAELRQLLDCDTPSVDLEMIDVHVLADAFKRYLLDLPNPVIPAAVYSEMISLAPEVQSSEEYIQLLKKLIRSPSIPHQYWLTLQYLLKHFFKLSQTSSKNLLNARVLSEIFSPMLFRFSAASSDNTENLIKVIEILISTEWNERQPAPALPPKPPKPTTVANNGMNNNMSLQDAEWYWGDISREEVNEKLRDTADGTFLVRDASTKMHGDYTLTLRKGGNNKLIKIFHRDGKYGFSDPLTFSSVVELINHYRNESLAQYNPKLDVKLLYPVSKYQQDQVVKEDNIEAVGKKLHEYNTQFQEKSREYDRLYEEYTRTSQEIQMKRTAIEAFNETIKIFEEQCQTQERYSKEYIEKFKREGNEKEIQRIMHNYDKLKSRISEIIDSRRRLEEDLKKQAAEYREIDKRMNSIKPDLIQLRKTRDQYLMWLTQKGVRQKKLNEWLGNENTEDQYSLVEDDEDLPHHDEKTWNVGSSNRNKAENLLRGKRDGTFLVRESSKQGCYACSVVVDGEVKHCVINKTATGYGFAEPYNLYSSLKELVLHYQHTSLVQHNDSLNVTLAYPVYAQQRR

Compared with `NC(=O)c1cn2nc(-c3cnc(N)nc3)nc(N3CCOCC3)c2n1` [1-01], `COCCNC(=O)c1cn2nc(-c3cnc(N)nc3)nc(N3CCOCC3)c2n1` [1-02] is 6.3-fold lower in IC50: 19 nM for the first, 3 nM for the second. The second is the more potent here.

First: Nc1ncc(-c2cn3nc(C(=O)NC4CCOCC4)cc3c(N3CCOCC3)n2)cn1 [1-04]
Second: Nc1ncc(-c2cn3nc(C(=O)N[C@H]4CC[C@H](O)CC4)cc3c(N3CCOCC3)n2)cn1 [1-10, 6-(2-amino-pyrimidin-5-yl)-4-morpholin-4-yl-pyrazolo[1,5-a]pyrazine-2-carboxylic acid (4-hydroxy-cyclohexyl)-amide]
The IC50 of the first is 1.6-fold higher: 26 nM for the first, 16 nM for the second.

First: NC(=O)c1cc2c(N3CCOCC3)nc(-c3cnc(N)nc3)cn2n1 [1-05, 6-(2-amino-pyrimidin-5-yl)-4-morpholin-4-yl-pyrazolo[1,5-a]pyrazine-2-carboxylic acid amide]
Second: Nc1ncc(-c2cn3nc(C(=O)N4CCCC4)cc3c(N3CCOCC3)n2)cn1 [1-07, [6-(2-amino-pyrimidin-5-yl)-4-morpholin-4-yl-pyrazolo[1,5-a]pyrazin-2-yl]-pyrrolidin-1-yl-methanone]
The IC50 of the first is 1.6-fold higher: 14 nM for the first, 9 nM for the second.

`CN(C)CCCNC(=O)c1cc2c(N3CCOCC3)nc(-c3cnc(N)nc3)cn2n1` [1-09, 6-(2-amino-pyrimidin-5-yl)-4-morpholin-4-yl-pyrazolo[1,5-a]pyrazine-2-carboxylic acid (3-dimethylamino-propyl)-amide] showed an IC50 of 443 nM.

`COCCNC(=O)c1cc2c(N3CCOCC3)nc(-c3cnc(N)nc3)cn2n1` [1-03] was tested, and the IC50 was 29 nM and < 100 nM.
